How the values were obtained:
Becker's nevus = assay: Topical flutamide applied to a Becker's nevus (Example 1, single patient); assay type: in vivo, person; settings: topical 4% solution, twice daily
Excerpt: FIG. 1a (left) depicts a person with a Becker's nevus before the antiandrogen treatment as described in example 1. FIG. 1b (right) depicts a person after treatment with a topical antiandrogen, specifically topical flutamide. […] A topical 4% solution of flutamide was applied twice daily to a Becker's nevus. […] (FIG. 1)

[1] = topical application; cited from earlier work

pigmentary change in the normal skin surrounding the Becker's nevus (Becker's nevus; during treatment): no pigmentary change
menstrual irregularities (Becker's nevus; patient-reported): denied any menstrual irregularities
SMILES: CC(C)C(=O)Nc1ccc([N+](=O)[O-])c(C(F)(F)F)c1 [flutamide, methyl-N-[4-nitro-3-(trifluoromethyl)phenyl]-propanamide]
cutaneous or systemic adverse effects (Becker's nevus): No cutaneous or systemic adverse effects
absorption into the skin and systemic absorption [1]: systemic absorption is measurable
